Data as given in the supplement of paper PMC10307832.

What was measured:
Assay in all cases: relative viability (nuclei count vs DMSO), 5 days (fraction); higher = more cells survive
201T = tested on: 201T
Procedure, shortened: (§1)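 Dosing by pin tool came one day after lung cancer cell lines were seeded in 1536-well plates, using either one drug or a fixed anchor-drug dose plus five library-drug doses (not always all listed) in √10 steps. After 5 days, nuclei were counted on 4× images. Relative viability is treated-well nuclei count divided by vehicle-well nuclei count, and values are medians of duplicate plates.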

HCC-15 = tested on: HCC-15
Procedure, shortened: as §1

COR-L 105 = tested on: COR-L 105
Procedure, shortened: as §1

LC-2-ad = tested on: LC-2-ad
Procedure, shortened: as §1

LU99A = tested on: LU99A
Procedure, shortened: as §1

NCI-H596 = tested on: NCI-H596
Procedure, shortened: as §1

COR-L23 = tested on: COR-L23
Procedure, shortened: as §1

HCC-366 = tested on: HCC-366
Procedure, shortened: as §1

NCI-H3122 = tested on: NCI-H3122
Procedure, shortened: as §1

HCC-78 = tested on: HCC-78
Procedure, shortened: as §1

NCI-H1993 = tested on: NCI-H1993
Procedure, shortened: as §1

EKVX = tested on: EKVX
Procedure, shortened: as §1

NCI-H1944 = tested on: NCI-H1944
Procedure, shortened: as §1

HCC-827 = tested on: HCC-827
Procedure, shortened: as §1

NCI-H1650 = tested on: NCI-H1650
Procedure, shortened: as §1

HARA = tested on: HARA
Procedure, shortened: as §1

SK-LU-1 = tested on: SK-LU-1
Procedure, shortened: as §1

BEN = tested on: BEN
Procedure, shortened: as §1

LXF-289 = tested on: LXF-289
Procedure, shortened: as §1

NCI-H1975 = tested on: NCI-H1975
Procedure, shortened: as §1

NCI-H1734 = tested on: NCI-H1734
Procedure, shortened: as §1

NCI-H1755 = tested on: NCI-H1755
Procedure, shortened: as §1

RERF-LC-KJ = tested on: RERF-LC-KJ
Procedure, shortened: as §1

SMILES: Cc1cnc(-c2cnc(NCCNc3ccc(C#N)cn3)nc2-c2ccc(Cl)cc2Cl)[nH]1 + O=C(c1cc(Cc2n[nH]c(=O)c3ccccc23)ccc1F)N1CCN(C(=O)C2CC2)CC1 [Olaparib] (partner 8 µM)
- relative viability (201T; first compound 0.08 µM): 0.848
- relative viability (201T; first compound 0.8 µM): 0.81
- relative viability (201T; first compound 2.53 µM): 0.834
- relative viability (HCC-15; first compound 0.08 µM): 0.77
- relative viability (HCC-15; first compound 0.253 µM): 0.653
- relative viability (HCC-15; first compound 0.8 µM): 0.721
- relative viability (HCC-15; first compound 2.53 µM): 0.737
- relative viability (COR-L 105; first compound 0.08 µM): 0.734
- relative viability (COR-L 105; first compound 0.253 µM): 0.711
- relative viability (COR-L 105; first compound 0.8 µM): 0.642
- relative viability (COR-L 105; first compound 2.53 µM): 0.691
- relative viability (LC-2-ad; first compound 0.08 µM): 0.657
- relative viability (LC-2-ad; first compound 0.8 µM): 0.73
- relative viability (LC-2-ad; first compound 2.53 µM): 0.645
- relative viability (LU99A; first compound 0.08 µM): 0.254
- relative viability (LU99A; first compound 0.253 µM): 0.256
- relative viability (LU99A; first compound 0.8 µM): 0.231
- relative viability (LU99A; first compound 2.53 µM): 0.253
- relative viability (NCI-H596; first compound 0.08 µM): 1.09
- relative viability (NCI-H596; first compound 0.253 µM): 0.736
- relative viability (NCI-H596; first compound 0.8 µM): 0.775
- relative viability (NCI-H596; first compound 2.53 µM): 0.724
- relative viability (COR-L23; first compound 0.08 µM): 0.379
- relative viability (COR-L23; first compound 0.253 µM): 0.314
- relative viability (COR-L23; first compound 0.8 µM): 0.343
- relative viability (COR-L23; first compound 2.53 µM): 0.261
- relative viability (HCC-366; first compound 0.08 µM): 0.375
- relative viability (HCC-366; first compound 0.253 µM): 0.297
- relative viability (HCC-366; first compound 0.8 µM): 0.338
- relative viability (NCI-H3122; first compound 0.08 µM): 0.568
- relative viability (NCI-H3122; first compound 0.8 µM): 0.651
- relative viability (NCI-H3122; first compound 2.53 µM): 0.545
- relative viability (HCC-78; first compound 0.08 µM): 0.865
- relative viability (HCC-78; first compound 0.253 µM): 0.588
- relative viability (HCC-78; first compound 0.8 µM): 0.737
- relative viability (HCC-78; first compound 2.53 µM): 0.834
- relative viability (NCI-H1993; first compound 0.08 µM): 1.1
- relative viability (NCI-H1993; first compound 0.253 µM): 0.855
- relative viability (NCI-H1993; first compound 0.8 µM): 1.13
- relative viability (NCI-H1993; first compound 2.53 µM): 1.2
- relative viability (EKVX; first compound 0.08 µM): 0.939
- relative viability (EKVX; first compound 0.253 µM): 0.814
- relative viability (EKVX; first compound 0.8 µM): 0.715
- relative viability (EKVX; first compound 2.53 µM): 0.85
- relative viability (NCI-H1944; first compound 0.08 µM): 0.446
- relative viability (NCI-H1944; first compound 0.8 µM): 0.42
- relative viability (NCI-H1944; first compound 2.53 µM): 0.413
- relative viability (HCC-827; first compound 0.08 µM): 0.582
- relative viability (HCC-827; first compound 0.253 µM): 0.514
- relative viability (HCC-827; first compound 0.8 µM): 0.572
- relative viability (HCC-827; first compound 2.53 µM): 0.561
- relative viability (NCI-H1650; first compound 0.08 µM): 0.724
- relative viability (NCI-H1650; first compound 0.253 µM): 0.737
- relative viability (NCI-H1650; first compound 0.8 µM): 0.808
- relative viability (NCI-H1650; first compound 2.53 µM): 0.868
- relative viability (HARA; first compound 0.08 µM): 0.509
- relative viability (HARA; first compound 0.253 µM): 0.72
- relative viability (HARA; first compound 0.8 µM): 0.764
- relative viability (HARA; first compound 2.53 µM): 0.894
- relative viability (SK-LU-1; first compound 0.08 µM): 0.455
- relative viability (SK-LU-1; first compound 0.253 µM): 0.479
- relative viability (SK-LU-1; first compound 0.8 µM): 0.463
- relative viability (SK-LU-1; first compound 2.53 µM): 0.472
- relative viability (BEN; first compound 0.08 µM): 1.17
- relative viability (BEN; first compound 0.253 µM): 1.04
- relative viability (BEN; first compound 0.8 µM): 0.973
- relative viability (BEN; first compound 2.53 µM): 0.978
- relative viability (LXF-289; first compound 0.08 µM): 1.04
- relative viability (LXF-289; first compound 0.253 µM): 1
- relative viability (LXF-289; first compound 0.8 µM): 1.11
- relative viability (LXF-289; first compound 2.53 µM): 1.11
- relative viability (NCI-H1975; first compound 0.08 µM): 0.759
- relative viability (NCI-H1975; first compound 0.253 µM): 0.715
- relative viability (NCI-H1975; first compound 0.8 µM): 0.672
- relative viability (NCI-H1975; first compound 2.53 µM): 0.502
- relative viability (NCI-H1734; first compound 0.08 µM): 0.635
- relative viability (NCI-H1734; first compound 0.253 µM): 0.622
- relative viability (NCI-H1734; first compound 0.8 µM): 0.644
- relative viability (NCI-H1734; first compound 2.53 µM): 0.516
- relative viability (NCI-H1755; first compound 0.08 µM): 0.941
- relative viability (NCI-H1755; first compound 0.253 µM): 0.819
- relative viability (NCI-H1755; first compound 0.8 µM): 0.804
- relative viability (NCI-H1755; first compound 2.53 µM): 0.869
- relative viability (RERF-LC-KJ; first compound 0.08 µM): 0.902
- relative viability (RERF-LC-KJ; first compound 0.253 µM): 0.65
- relative viability (RERF-LC-KJ; first compound 0.8 µM): 0.839
- relative viability (RERF-LC-KJ; first compound 2.53 µM): 0.858
